Assays:
rhNBD1 ATP binding site = assay: Intrinsic tryptophan (W401) fluorescence of NBD1; design: species or system human; conditions: preincubation of rhNBD1 with peptide
Procedure: To assess the capability of P31-43 peptide to bind NBD1 domain and modify its ATP binding site the intrinsic Tryptophan fluorescence of NBD1 was measured. Experiments were performed in a 0.2 ml fluorimeter cuvette at 25° C. using Varian Cary Eclipse fluorescence spectrophotometer. NBD1 protein was diluted to 1 μM in a buffer containing 50 mM Tris/HCl (pH 7.6), 150 mM NaCl, and 5 mM MgCl2, supplemented with 2 mM ATP and P31-43 5 μM when indicated. All spectra were corrected for buffer fluorescence. Excitation wavelength was adjusted to 292 nm and emission was scanned over the range 300-500 nm.

TG2 / NBD1 = assay: Cell-free system with recombinant TG2, NBD1 and synthetic peptide (native PAGE); format: biochemical; conditions: Ca2+-activated TG2
Procedure: FIG. 5: a, Immunoprecipitation of TG2 protein 15 in Caco-2 cells challenged with P57-68, PGAV or P31-43 and blotted with HRP-streptavidin. b, Immunoprecipitation of CFTR protein in Caco-2 cells challenged with P31-43 in the presence of absence of the TG2 inhibitor ZDON or TG2 RNA silencing and 20 blotted with anti-isopeptide glutamime-lysine and anti-TG2 antibodies. c, Recombinant TG2 and/or NBD1 incubated in vitro with P31-43 and solved in native page in the presence or absence of Ca2+. d, Immunoprecipitation of CFTR protein and immunblot with anti-CFTR antibodies or anti-TG2 antibodies. e, Immunoprecipitation of CFTR protein and immunoblot with anti-TG2 or anti-CFTR antibodies; effects of ZDON and BAPTA-AM. f, In situ detection of TG2 activity in Caco-2 cells pulsed with Ca2+ in the presence or absence of VX-770 or Z-DON. Activity assay by immunoblotting of the TG-catalyzed incorporation of 5-biotinamidopentylamine (BAP) and blotting with anti-biotin antibody. g, In situ TG2 activity assay, by immunostaining of the TG-catalysed incorporation of monodansylcadaverin, on Caco-2 cells pre-incubated with VX-770 or Z-DON and then pulsed with P31-43. Scale bar 50 μm. h, Immunoprecipitation of PKAr2a protein and immunoblot with isopeptide glutamime-lysine antibody in Caco-2 cells challenged with P57-68 or P31-43 in the absence or presence of VX-770. (i,j). […]

[1] = system: non-obese diabetic (NOD) female mice; assay: NOD mice orally challenged with gliadin; format: in vivo, mouse
Excerpt: In the second model of gluten sensitivity, the Applicant resorted to non-obese diabetic (NOD) female mice, which spontaneously develop autoimmune type-1 diabetes (Maurano, F., et al. 2005).
BALB/c mice (background BALB/cAnNCrl) were purchased from Charles River (Varese, Italy). Three generation gluten-free diet (Mucedola srl, Milan), male and female, were challenged with gliadin for 4 weeks. […]
Chambers for mounting either transwell cell cultures or mouse tissue biopsies were obtained from Physiologic Instruments (model P2300, San Diego, Calif., USA). […] Shortcircuit current (expressed as Isc (μA/cm2)) and resistance were acquired or calculated using the VCC600 transepithelial clamp from Physiologic Instruments and the Acquire & Analyze 2.3 software for data acquisition (Physiologic Instruments), as previously described Tosco A, et al. 2016; Romani, L. et al. 2017).
ELISA analysis was performed on tissue samples using standard ELISA kits (R&D Systems) for IL-15, IL-17A, INFγ IL21, IL10, TGF-β. […] Samples were read in triplicate at 450 nm in a Microplate Reader (BioRad, Milan, Italy) using Microplate Manager 5.2.1 software. Values were normalized to protein concentration evaluated by Bradford analysis. […]

Chain of rhNBD1 ATP binding site (P13569 389-646 limits assumed): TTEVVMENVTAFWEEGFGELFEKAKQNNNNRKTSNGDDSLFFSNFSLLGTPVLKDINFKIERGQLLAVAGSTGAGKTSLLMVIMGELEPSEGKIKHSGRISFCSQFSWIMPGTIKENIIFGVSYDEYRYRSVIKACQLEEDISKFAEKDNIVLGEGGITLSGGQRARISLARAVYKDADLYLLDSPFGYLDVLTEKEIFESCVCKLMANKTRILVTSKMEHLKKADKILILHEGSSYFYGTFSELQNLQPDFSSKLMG

| Compound | effect on ATP quenching of W401 fluorescence (rhNBD1 ATP binding site) | TG2-catalyzed covalent interaction with NBD1 (TG2 / NBD1) | immunoprotective effects (IL-15, IL-17A, IFN-γ protein) ([1]; NOD mice challenged with gliadin after diabetes onset) | effect on gliadin-induced reduction in CFTR function ([1]; NOD mice, VX-770 i.p.) |
| --- | --- | --- | --- | --- |
| α-gliadin peptide LGQQQPFPPQQPY (SEQ ID 1), induces an enterocyte stress response (P31-43 sequence of alpha-gliadin) | quenching effect of ATP on W401 fluorescence was reduced | Ca2+-activated TG2 catalyzed covalent interactions between P31-43 and NBD1 | – | – |
| CC(C)(C)c1cc(C(C)(C)C)c(NC(=O)c2c[nH]c3ccccc3c2=O)cc1O [VX-770, N-(2,4-di-tert-butyl-5-hydroxyphenyl)-4-oxo-1,4-dihydroquinoline-3-carboxamide] | – | – | immunoprotective effects of VX-770 were confirmed | inhibitable |

Reference: patent US20200206198A1, “CFTR CHANNEL ACTIVATOR FOR USE IN THE TREATMENT AND/OR PREVENTION OF GLUTEN SENSITIVITY CONDITIONS” (priority 2017, published 2020)
